Measured values published in patent US20050282893A1 (priority 2004, published 2005).

Columns and labels:
FaDu cells = assay: Cell growth of FaDu cells transfected with hTR antisense or sense; format: cell-based, human
Description: hTR antisense inhibits telomerase. The antisense study consisted of the following steps: (a) construction of a sense and antisense to the RNA portion of the human telomerase (hTR), (b) stable transfection of cells with the hTR antisense (or hTR sense control), and (c) determination of the ability of the hTR antisense to inhibit telomerase activity and induce telomere shortening. The methodologies are detailed in the art, for example, by Mo et al., Cancer Res. 2003.
Transfection procedures. Transfection of the antisense construct used an IPTG-inducible mammalian expression system. The resulting clones were used for experiments.
Effect of hTR antisense on cell growth. Table 2 summarizes the results which show a slower growth rate for the antisense +IPTG cells (i.e., cells that were transfected by hTR antisense and treated with IPTG to induce the expression of […]) compared to cells that had either not been transfected with the antisense, not transfected but treated with IPTG, transfected with the sense and treated with IPTG, or transfected with the antisense but without the IPTG induction (i.e., control, +IPTG, +sense +IPTG, and antisense).

[1] = tested on: telomere length in FaDu cells; assay: Telomere length (terminal restriction fragment) by TALA in transfected FaDu cells; format: cell-based, human
Description: Measurement of telomere length in cultured cells. Two methods were used to measure telomere length. The first method was a solution hybridization based telomere amount and length assay (TALA) (Gan, et al., Pharm. Res., 18:1655-1659, 2001) that measures the mean length of the terminal restriction fragments (TRF). The second method was fluorescence in situ hybridization (FISH) to detect telomere signal and to estimate the approximate length of individual telomere structures at the end of chromosomes. The FISH method is as described in U.S. patent application Ser. No. 09/587,662 and Gan, et al., 2001.
(§1) Effect of hTR antisense on telomere length and telomerase activity. Telomere length (referred to as terminal restriction fragment) was measured using the TALA method. Telomerase activity was measured using the improved TRAP method.

human telomerase = assay: Telomerase activity by improved TRAP in transfected FaDu cells; format: cell-based
Procedure: Inhibition of telomerase activity in cell lysates and intact cells. The modified Telomeric Repeat Amplification Protocol (TRAP) assay (Gan, et al., Pharm. Res., 18:488-493, 2001) was used to detect telomerase activity in cell lysate. The telomerase activity in intact cells was measured using intracellular TRAP, as follows. Cells (1×10^5) were washed twice with PBS and centrifuged. The cell pellet was resuspended in 100 μl of serum-free RPMI 1640 containing 5 u/ml of Streptolysin O, 2 μM of TS primer, and 50 μM of dNTP, and incubated at room temperature for 5 min. The enzyme streptolysin O was used to increase the cell membrane permeability to the TS primer. Upon entering a cell, the TS primer was elongated by the intracellular telomerase in situ. The elongated TS primer was then isolated from the cells and used as the template for PCR amplification. Then 200 μl of RPMI 1640 medium containing 10% FBS was added to the cells to stop the permeating process. […] The cells were then lyzed and the cell lysates, which contained the already extended TS primer, was directly analyzed by TRAP.
as §1

Compound: CC(C)S[C@@H]1O[C@H](CO)[C@H](O)[C@H](O)[C@H]1O [+IPTG]
- Doubling time (FaDu cells): 23 h
- Terminal restriction fragment [1]: 2.91 kb
- Telomerase activity, % of control (human telomerase): 98.9 % of control
